Data taken from patent publication US9028887B2, “Method improve spatial memory via pterostilbene administration” (The United States of America, as represented by the …, priority 2007, dated 2015).

System: M1-transfected COS-7 cells
Experiment: Calcium recovery in M1-transfected COS-7 cells after dopamine treatment and oxotremorine-induced depolarization
Type: cell-based, African green monkey
Details: then 1 mM dopamine 4 hours, 750 μM oxotremorine depolarization
Method: COS-7 cells, a cell line derived from African green monkey kidney, were grown in Dulbecco's Modified Eagle's Medium (D-MEM) supplemented with 10% fetal bovine serum (FBS) and containing 100 U/ml penicillin and 100 μg/ml streptomycin sulfate. Twenty four hours prior to transfection, cells were harvested with trypsin, counted, and plated on […] tissue culture plates at 5×10^6 cells/plate. Cells were transiently transfected with rat muscarinic receptor subtype 1 DNA by the DEAE-dextran method. After transfection, cells were incubated 2.5 hours in growth medium containing 80 μM chloroquine to minimize degradation of the DNA. Transfected cells were then maintained in growth medium for 48 hours, harvested with trypsin, plated to coverslips in 35 mm plates for calcium imaging, and incubated overnight.
Dis. 6:403-411, and hereby incorporated by reference. The BB extract and stilbenes were dissolved in growth media and cells were subsequently incubated for 45 minutes at 37° C. with the treated growth medium, followed by dopamine administration for 4 hours. Following these incubations, the cells were washed three times with extract-free growth medium prior to testing.
Calcium imaging was carried out using a Medical Systems Corp. open perfusion micro-incubator (37° C.) with temperature control that was mounted on the stage of a Nikon Eclipse TE200U microscope and illuminated with a fluorescent light source. Transfected cells were loaded with Fura-2/acetoxymethyl ester (2 μM) in loading medium (99% DMEM 1% FES) for 40 minutes at 37° C. with 5% CO2.
Real time analyses of calcium flux prior to and following 750 μM oxotremorine-induced depolarization were then carried out using Simple PCI software (Compix, Inc. Mars, Pa.). Response and recovery were then determined for each sample. […] Recovery was determined by assessing the time (within 300 sec) for the Ca^2+ levels to return to 20% of the increase following depolarization in the cells that responded. Data was analyzed by Kruskal-Wallis one-way analysis of variance and Mann-Whitney U tests.

| Structure (SMILES) | protection against dopamine-induced decreases in Ca2+ Recovery (10 μg/ml pre-treatment 45 min) | protection against dopamine-induced decreases in Ca2+ Recovery (50 μg/ml pre-treatment 45 min) | also measured |
| --- | --- | --- | --- |
| COc1ccc(/C=C/c2cc(O)cc(O)c2)cc1 [desoxyrhapontigenin, trans-3,5-dihydroxy-4′-methoxystilbene] | – | – | protection against dopamine-induced decreases in Ca2+ Recovery (25 μg/ml pre-treatment 45 min): offered no protection |
| Oc1cc(O)cc(/C=C/c2ccc(O)c(O)c2)c1 [piceatannol, trans-3,4,3′,5′-tetrahydroxystilbene] | protected against the dopamine-induced decreases in Recovery | – | – |
| COc1cc(O)cc(/C=C/c2ccc(O)cc2)c1 [pinostilbene, trans-3,4′-dihydroxy-5-methoxystilbene] | – | offered no protection | – |
| COc1cc(/C=C/c2ccc(O[C@@H]3O[C@H](CO)[C@@H](O)[C@H](O)[C@H]3O)cc2)cc(OC)c1 [pterostilbene glucoside] | protected against the dopamine-induced decreases in Recovery | – | – |
| COc1ccc(/C=C/c2cc(OC)cc(OC)c2)cc1 [resveratrol trimethylether, trans-3,5,4′-trimethyletherstilbene] | protected against the dopamine-induced decreases in Recovery | – | – |
| Oc1ccc(/C=C/c2cc(O)cc(O)c2)cc1 [resveratrol, trans-3,5,4′-trihydroxystilbene] | – | offered no protection | – |
